17 compounds from patent publication US8314250B2, “Sultam derivatives” (Hoffmann-La Roche Inc., priority 2009, dated 2012) can be followed below.

Structures can show the parent of a compound that is named as a salt.

One assay concerns HeLa cells. As to the kind of experiment: CellTiter-Glo luminescent cell viability (cytotoxicity) assay. Format: cell-based. The settings on record: 10 μM test compound, 48 hours, inhibition of luminescence compared to control cells, 10 µM. How it is done: Cytotoxicity was assessed using Promega's CellTiter-Glo® luminescent cell viability assay (Promega Corporation, Madison, Wis., USA) as described in Promega Technical Bulletin TB288, revised August 2008. The assay was performed in HeLa cells at a maximum concentration tested of 10 μM of test compound. This assay measures the amount of adenosine triphosphate (ATP) present as a way of quantifying the presence and degree of metabolic activity in cell cultures.
Viable Hela cells were plated at a density of 3000 cells/well in 96 wells in black, clear bottom plates. Cells were allowed to attach to the plate by incubating overnight at 37° C. Test compounds were diluted in DMSO then further diluted in 10% FBS media. Media was removed from the cell plates and 50 μL of the solution was added to each well manually with the exception of the control well, which contained the same volume of 10% FBS media which includes 1% DMSO. Cells were incubated in the presence of compound undisturbed for 48 hours at 37° C. After the 48 hour compound exposure, 50 μL of the pCellTiter Glo® reagent was added. The cell plates were agitated on a shaker for 2 minutes to help lyse the cells. The plate was covered and read for luminescence.
Percent inhibition was calculated as follows: PCT_INHIB=100*[(U−T)/U] Where U represents the Luminescence of wells containing untreated cells and
T represents the Luminescence of wells containing compound-treated cells
With `COc1ccc(Cl)c(CN(Cc2cccc(CN3C(C(=O)NC45CC6CC(CC(C6)C4)C5)CCS3(=O)=O)c2)[C@H](CN(C)C)CC(C)(C)C)c1F` (single isomer, unassigned; epimer 1) [Example 33], the “Activity (PCT_INHIB @ 10 μM)” value was 96%.

The assay is the same for the next values; noted with them: Homo sapiens, HeLa, 48 h, 10 μM test compound, inhibition of luminescence compared to control cells, read-out: Activity (PCT_INHIB @ 10 μM).
Turning to `COc1ccc(Cl)c(CN(Cc2cccc(CN3C(C(=O)NC45CC6CC(CC(C6)C4)C5)CCS3(=O)=O)c2)[C@H](CN(C)C)CC(C)(C)C)c1F` (stereo partly drawn) [Example 20, 2-(3-{[(6-Chloro-2-fluoro-3-methoxy-benzyl)-((S)-1-dimethylaminomethyl-3,3-dimethyl-butyl)-amino]-methyl}-benzyl)-1,1-dioxo-1λ^6-isothizolidine-3-carboxylic acid adamantan-1-ylamide], the inhibition at 10 µM is 95%.
Still for that read-out and setting: to `COc1ccc(Cl)c(CN(Cc2cccc(CN3C(C(=O)N[C@H]4C[C@H]5C[C@@H]([C@@H]4C)C5(C)C)CCS3(=O)=O)c2)[C@@H](Cc2cccc(Cl)c2)CN(C)C)c1F` (stereo partly drawn) [Example 22, 2-[3-({(6-Chloro-2-fluoro-3-methoxy-benzyl)-[(S)-2-(3-chloro-phenyl)-1-dimethylaminomethyl-ethyl]-amino}-methyl)-benzyl]-1,1-dioxo-1λ^6-isothiazolidine-3-carboxylic acid((1S,2S,3S,5R)-2,6,6-trimethyl-bicyclo[3.1.1]hept-3-yl)-amide] belongs 93%; to `COc1ccc(Cl)c(CN(Cc2cccc(CN3C(C(=O)N[C@H]4C[C@H]5C[C@@H]([C@@H]4C)C5(C)C)CCS3(=O)=O)c2)[C@@H](Cc2ccc(Cl)cc2)CN(C)C)c1F` (stereo partly drawn) [Example 23, 2-[3-({(6-Chloro-2-fluoro-3-methoxy-benzyl)-[(S)-2-(4-chloro-phenyl)-1-dimethylaminomethyl-ethyl]-amino}-methyl)-benzyl]-1,1-dioxo-1λ^6-isothiazolidine-3-carboxylic acid((1S,2S,3S,5R)-2,6,6-trimethyl-bicyclo[3.1.1]hept-3-yl)-amide], 96%.
For `COc1ccc(Cl)c(CN(Cc2cccc(CN3C(C(=O)N[C@H]4CC5CCC4(C)C5(C)C)CCS3(=O)=O)c2)[C@H](CN(C)C)CC(C)(C)C)c1F` (stereo partly drawn) [Example 28, 2-(3-{[(6-Chloro-2-fluoro-3-methoxy-benzyl)-((S)-1-dimethylaminomethyl-3,3-dimethyl-butyl)-amino]-methyl}-benzyl)-1,1-dioxo-1λ^6-isothiazolidine-3-carboxylic acid((S)-1,7,7-trimethyl-bicyclo[2.2.1]hept-2-yl)-amide], the inhibition at 10 µM amounted to 96%.
For `COc1ccc(F)c(F)c1CN(Cc1cccc(CN2C(C(=O)N[C@H]3C[C@H]4C[C@@H]([C@@H]3C)C4(C)C)CCS2(=O)=O)c1)[C@@H](Cc1ccccc1)CN(C)C` (stereo partly drawn) [Example 29, 2-(3-{[(2,3-Difluoro-6-methoxy-benzyl)-((S)-1-dimethylaminomethyl-2-phenyl-ethyl)-amino]-methyl}-benzyl)-1,1-dioxo-1λ^6-isothiazolidine-3-carboxylic acid((1S,2S,3S,5R)-2,6,6-trimethyl-bicyclo[3.1.1]hept-3-yl)-amide], the inhibition at 10 µM worked out at 95%.
Still for that read-out and setting: the figure for `Cc1ccc(Oc2ccccc2CN(Cc2cccc(CN3C(C(=O)N[C@H]4C[C@H]5C[C@@H]([C@@H]4C)C5(C)C)CCS3(=O)=O)c2)[C@H](CN(C)C)CC(C)(C)C)cc1` (stereo partly drawn) [Example 7, 2-(3-{[((S)-1-Dimethylaminomethyl-3,3-dimethyl-butyl)-(2-p-tolyloxy-benzyl)-amino]-methyl}-benzyl)-1,1-dioxo-1λ^6-isothiazolidine-3-carboxylic acid((1S,2S,3S,5R)-2,6,6-trimethyl-bicyclo[3.1.1]hept-3-yl)-amide trifluoroacetate salt] is 58%; for `CCOc1ccccc1CN(Cc1cccc(CN2C(C(=O)N[C@H]3C[C@H]4C[C@@H]([C@@H]3C)C4(C)C)CCS2(=O)=O)c1)[C@H](CN(C)C)CC(C)(C)C` (stereo partly drawn) [Example 3, 2-(3-{[((S)-1-Dimethylaminomethyl-3,3-dimethyl-butyl)-(2-ethoxy-benzyl)-amino]methyl}-benzyl)-1,1-dioxo-1λ^6-isothiazolidine-3-carboxylic acid((1S,2S,3S,5R)-2,6,6-trimethyl-bicyclo[3.1.1]hept-3-yl)-amide trifluoroacetate salt] it is 69%.
Consider `C[C@@H]1[C@@H](NC(=O)C2CCS(=O)(=O)N2Cc2cccc(CN(Cc3cccc4c3OCO4)[C@H](CN(C)C)CC(C)(C)C)c2)C[C@H]2C[C@@H]1C2(C)C` (stereo partly drawn) [Example 17, 2-(3-{[Benzo[1,3]dioxol-4-ylmethyl-((S)-1-dimethylaminomethyl-3,3-dimethyl-butyl)-amino]-methyl}-benzyl)-1,1-dioxo-1λ^6-isothiazolidine-3-carboxylic acid((1S,2S,3S,5R)-2,6,6-trimethyl-bicyclo[3.1.1]hept-3-yl)-amide trifluoroacetate salt], for which the inhibition at 10 µM is 96%.
The same measure, in the same setting: the figure for `COc1ccc(Cl)c(CN(Cc2cccc(CN3C(C(=O)N4CCC(O)(c5ccc(Cl)cc5)CC4)CCS3(=O)=O)c2)[C@H](CN(C)C)CC(C)(C)C)c1F` (stereo partly drawn) [Example 32, [2-(3-{[(6-Chloro-2-fluoro-3-methoxy-benzyl)-((S)-1-dimethylaminomethyl-3,3-dimethyl-butyl)-amino]-methyl}-benzyl)-1,1-dioxo-1λ^6-isothiazolidin-3-yl]-[4-(4-chloro-phenyl)-4-hydroxy-piperidin-1-yl]-methanone] is 96%.
The same measure, in the same setting: the figure for `C[C@@H]1[C@@H](NC(=O)C2CCS(=O)(=O)N2Cc2cccc(CN(Cc3cc(Cl)ccc3O)[C@H](CN(C)C)CC(C)(C)C)c2)C[C@H]2C[C@@H]1C2(C)C` (stereo partly drawn) [Example 1, 2-(3-{[(5-Chloro-2-hydroxy-benzyl)-((S)-1-dimethylaminomethyl-3,3-dimethyl-butyl)-amino]-methyl}-benzyl)-1,1-dioxo-1λ^6-isothiazolidine-3-carboxylic acid((1S,2S,3S,5R)-2,6,6-trimethyl-bicyclo[3.1.1]hept-3-yl)-amide] is 96%; for `C[C@@H]1[C@@H](NC(=O)C2CCS(=O)(=O)N2Cc2cccc(CN(Cc3c(F)ccc(F)c3F)[C@H](CN(C)C)CC(C)(C)C)c2)C[C@H]2C[C@@H]1C2(C)C` (stereo partly drawn) [Example 13, 2-(3-{[((S)-1-Dimethylaminomethyl-3,3-dimethyl-butyl)-(2,3,6-trifluoro-benzyl)-amino]-methyl}-benzyl)-1,1-dioxo-1λ^6-isothiazolidine-3-carboxylic acid((1S,2S,3S,5R)-2,6,6-trimethyl-bicyclo[3.1.1]hept-3-yl)-amide trifluoroacetate salt] it is 93%; for `C[C@@H]1[C@@H](NC(=O)C2CCS(=O)(=O)N2Cc2cccc(CN(Cc3ccccc3-c3ccc(F)cc3)[C@H](CN(C)C)CC(C)(C)C)c2)C[C@H]2C[C@@H]1C2(C)C` (stereo partly drawn) [Example 8, 2-(3-{[((S)-1-Dimethylaminomethyl-3,3-dimethyl-butyl)-(4′-fluoro-biphenyl-2 ylmethyl)-amino]-methyl}-benzyl)-1,1-dioxo-1λ^6-isothiazolidine-3-carboxylic acid((1S,2S,3S,5R)-2,6,6-trimethyl-bicyclo[3.1.1]hept-3-yl)-amide trifluoroacetate salt] it is 97%.
Same read-out and setting: to `COc1ccc(Cl)c(CN(Cc2cccc(CN3C(C(=O)NCc4ccc(Cl)cc4)CCS3(=O)=O)c2)[C@H](CN(C)C)CC(C)(C)C)c1F` (stereo partly drawn) [Example 27, 2-(3-{[(6-Chloro-2-fluoro-3-methoxy-benzyl)-((S)-1-dimethylaminomethyl-3,3-dimethyl-butyl)-amino]-methyl}-benzyl)-1,1-dioxo-1λ^6-isothiazolidine-3-carboxylic acid 4-chloro-benzylamide] belongs 95%; to `COc1ccc(C(C)C)cc1CN(Cc1cccc(CN2C(C(=O)N[C@H]3C[C@H]4C[C@@H]([C@@H]3C)C4(C)C)CCS2(=O)=O)c1)[C@H](CN(C)C)CC(C)(C)C` (stereo partly drawn) [Example 4, 2-(3-{[((S)-1-Dimethylaminomethyl-3,3-dimethyl-butyl)-(5-isopropyl-2-methoxy-benzyl)-amino]-methyl}-benzyl)-1,1-1λ^6-isothiazolidine-3-carboxylic acid((1S,2S,3S,5R)-2,6,6-trimethyl-bicyclo[3.1.1]hept-3-yl)-amide trifluoroacetate salt], 96%; to `Cc1ccc(Cl)c(CN(Cc2cccc(CN3C(C(=O)N[C@H]4C[C@H]5C[C@@H]([C@@H]4C)C5(C)C)CCS3(=O)=O)c2)[C@H](CN(C)C)CC(C)(C)C)c1F` (stereo partly drawn) [Example 15, 2-(3-{[(6-Chloro-2-fluoro-3-methyl-benzyl)-((S)-1-dimethylaminomethyl-3,3-dimethylbutyl)-amino]-methyl}-benzyl)-1,1-dioxo-1λ^6-isothiazolidine-3-carboxylic acid((1S,2S,3S,5R)-2,6,6-trimethyl-bicyclo[3.1.1]hept-3-yl)-amide trifluoroacetate salt], 91%.
`C[C@@H]1[C@@H](NC(=O)C2CCS(=O)(=O)N2Cc2cccc(CN(Cc3ccccc3OC(F)F)[C@H](CN(C)C)CC(C)(C)C)c2)C[C@H]2C[C@@H]1C2(C)C` (stereo partly drawn) [Example 5, 2-(3-{[(2-Difluoromethoxy-benzyl)-((S)-1-dimethylaminomethyl-3,3-dimethyl-butyl)amino]-methyl}-benzyl)-1,1-dioxo-1λ^6-isothiazolidine-3-carboxylic acid((1S,2S,3S,5R)-2,6,6-trimethyl-bicyclo[3.1.1]hept-3-yl)-amide trifluoroacetate salt]: the inhibition at 10 µM came to 87%.
